Results as given in US20060002946A1, “Targeted immunogens” (Aventis Pasteur, Inc., priority 2003, published 2006).

Assays:
[1] = tested on: HLA-A2/K^b transgenic mice; settings: 100 μg s.c. plus T-helper peptide, no adjuvant, boosts days 14 and 28
Text: Mice were similarly boosted on days 14 and 28. On day 42, splenocytes (2 mice per group) were individually restimulated in vitro for 6 days with the appropriate wild type peptide, and then tested for either IFN-γ secretion by ELISPOT (FIG. 3A) or CTL assay (FIG. 3B) using peptide-pulsed C1R-A2 cells. On day 57, the remaining mice in each group were similarly tested. Average responses from each group are shown.

[2] = tested on: HLA-A2/Kb transgenic mice; assay: s.c. peptide immunization, gp100-154 CTL chromium release (FIG. 5); settings: 50 ug s.c., boosts days 21 and 42, day 63
Description: CTL responses in HLA-A2/Kb transgenic mice following subcutaneous (s.c.) injection of peptide. Mice were immunized s.c. with 50 ug of the indicated peptides and boosted on days 21 and 42 following the first injection. Splenocytes from immunized animals were harvested on day 63 post immunization, re-stimulated with the native gp100-154 peptide for 5 days, and tested for CTL activity in a standard chromium release assay using target cells pulsed with gp100-154 peptide.
Furthermore, CTL responses were assessed in HLA-A2/K^b transgenic mice (Sherman strain) following s.c. immunization with gp100-154 peptide alone, conjugated to hPER1 or AntpHD with or without linker FVYVW. Mice were boosted on days 21 and 42 and splenocytes from vaccinated animals were harvested on day 63 and tested for CTL activity after 5 days of restimulation in vitro.

[3] = tested on: HLA-A2/K^b transgenic mice; assay: s.c. immunization without adjuvant, CTL assay (FIG. 3B); type: in vivo, mouse; settings: 100 μg s.c. plus T-helper peptide, no adjuvant, boosts days 14 and 28
Text: Mice were similarly boosted on days 14 and 28. […] Average responses from each group are shown.

## GRRHHRRSKAKRSRKTWGQYWQV [hPER1, no linker, gp100-154]
[1]
  154-specific IFN-γ responses (ELISPOT): can be induced
[2]
  CTL responses against gp100-154: a weak response was observed
[3]
  peptide-specific CTL responses: can be induced
